The values that follow come from patent publication US20150368195A1, “INDOLINE COMPOUNDS FOR TREATMENT AND/OR PREVENTION OF INFLAMMATION DISEASES” (Taipei Medical University, priority 2014, published 2015).

Structures are written as SMILES. “Also recorded” adds a separate entry of the source.

The subject of one experiment is histone H3 (Acetyl-H3). Briefly: histone H3 acetylation, Western blot, RA-FLS. The format is cell-based. Conditions: 1 μM MPT0G009 or 30 μM SAHA; 6, 12, 24 h; starting at 12 h. On the procedure: Then cells were harvested and cell lysates were prepared for Western blot analysis of the indicated proteins. (FIG. 5C) RA-FLS were incubated for 1 h with or without the proteasome inhibitor, MG132 (1 μM). […] Results shown are representative of three independent experiments.
This was a proteasome-dependent effect because it was reduced by pretreatment with the proteasome inhibitor, MG132 (1 μM; FIG. 5c).
On the technique in general: Immunoblotting shows a protein as a band on a membrane.

For experiment [1], the system named is adjuvant-induced arthritis. Briefly: adjuvant-induced arthritis (AIA) model. To be noted: MPT0G009 25 mg/kg.
Description: (FIG. 8B) Hind paw volumes in the indicated group of rats were measured using a digital plethysmometer on the indicated day after AIA induction. […] (FIG. 8D) Serum levels of interleukin (IL)-1β (left panel) and IL-6 (right panel) on day 21 as measured by enzyme-linked immunosorbent assay (ELISA). […] (FIG. 8F) The bone mineral density (BMD, in mg/mm^3) and the bone mineral content (BMC, in mg) values for the bone tissue of the tarsus were analyzed using CT Analysis Software.
Setting [2] is: day 21, ELISA, SAHA 200 mg/kg, indomethacin 1 mg/kg.
The mark [3] stands for this setting: oral daily days 2 to 21, SAHA 200 mg/kg, indomethacin 1 mg/kg, vs vehicle.

As to `COc1ccc(S(=O)(=O)N2CCc3cc(C=CC(=O)NO)ccc32)cc1` [Compound 9, 3-[1-(4-methoxybenzenesulfonyl)-2,3-dihydro-1H-indol-5-yl]-N-Hydroxyacrylamide], in the experiment on histone H3 (Acetyl-H3), the “acetylation of histone H3 in RA-FLS” value is recorded as “significant hyperacetylation of histone H3”. Further, in experiment [1], the “bone destruction (micro-computed tomography)” value is “ameliorated”; the “bone mineral density (BMD) and bone mineral content (BMC)” value is recorded as “prevented the decrease”; the “cartilage degradation (safranin O staining of ankle joints)” value is recorded as “markedly reduced”; the decrease of osteoblasts result is “apparently ameliorated”. In experiment [1], the “formation of osteoclasts (TRAP stain)” value is given as “significantly decreased”; the “leukocyte infiltration, synovitis (hematoxylin and eosin staining)” value was “significantly reduced”; the “levels of acetyl-histone H3 (immunohistochemical staining)” value was “increased levels”. Besides, in experiment [1] (25 mg/kg), the “synoviocytes proliferation and inflammation (KI-67, COX-2 staining)” value is listed as “inhibition; also recorded: suppresses”. Further, in experiment [1] (setting [2]), the “serum levels of IL-1β” value is “significant decreases” and the “serum levels of IL-6” value is on record as “significant decreases”. In addition, the arthritis scores result in experiment [1] (day 21, SAHA 200 mg/kg, indomethacin 1 mg/kg, vs vehicle) is “significant reductions”. For the same compound, in experiment [1] (setting [3]), the paw swelling entry is reported as “significant reductions” and the paw volume entry is recorded as “significant reductions”.
